Test results: ChEMBL document CHEMBL1134574, “Synthesis and characterization of non-steroidal ligands for the glucocorticoid receptor: selective quinoline derivatives with prednisolone-equivalent functional activity” (J Med Chem, 2001)

What was measured:
Androgen receptor = target: T1, Androgen receptor (Homo sapiens, UniProt P10275); assay: Binding affinity for androgen receptor
T1 sequence (P10275 whole entry): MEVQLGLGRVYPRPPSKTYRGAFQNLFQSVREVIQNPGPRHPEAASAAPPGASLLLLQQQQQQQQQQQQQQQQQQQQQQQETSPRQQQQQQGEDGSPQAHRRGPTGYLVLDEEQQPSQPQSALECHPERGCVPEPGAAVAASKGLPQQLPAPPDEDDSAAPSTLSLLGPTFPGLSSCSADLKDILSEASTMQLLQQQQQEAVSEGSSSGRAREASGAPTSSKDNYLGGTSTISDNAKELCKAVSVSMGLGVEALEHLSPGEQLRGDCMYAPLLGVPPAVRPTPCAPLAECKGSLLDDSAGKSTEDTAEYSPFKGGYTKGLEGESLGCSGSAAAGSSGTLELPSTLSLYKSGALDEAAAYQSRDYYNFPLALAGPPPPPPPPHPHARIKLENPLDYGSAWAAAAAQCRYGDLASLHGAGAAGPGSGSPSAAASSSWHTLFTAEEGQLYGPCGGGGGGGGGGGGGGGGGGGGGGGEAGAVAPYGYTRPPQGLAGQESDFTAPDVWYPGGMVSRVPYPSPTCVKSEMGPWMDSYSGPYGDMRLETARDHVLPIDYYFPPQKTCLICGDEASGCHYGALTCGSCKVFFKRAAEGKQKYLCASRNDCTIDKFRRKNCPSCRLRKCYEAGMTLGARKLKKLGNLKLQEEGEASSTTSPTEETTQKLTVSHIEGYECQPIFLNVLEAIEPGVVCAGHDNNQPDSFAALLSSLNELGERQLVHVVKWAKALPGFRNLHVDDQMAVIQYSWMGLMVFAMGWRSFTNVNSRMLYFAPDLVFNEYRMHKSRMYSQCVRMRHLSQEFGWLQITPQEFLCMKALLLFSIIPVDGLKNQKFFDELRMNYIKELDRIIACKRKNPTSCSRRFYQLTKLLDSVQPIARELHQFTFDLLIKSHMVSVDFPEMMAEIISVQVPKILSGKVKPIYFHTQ

Glucocorticoid receptor [1] = target: T2, Glucocorticoid receptor (Homo sapiens, UniProt P04150); assay: Glucocorticoid-induced aromatase activity in human skin fibroblasts; assay type: functional
T2 sequence (P04150 whole entry): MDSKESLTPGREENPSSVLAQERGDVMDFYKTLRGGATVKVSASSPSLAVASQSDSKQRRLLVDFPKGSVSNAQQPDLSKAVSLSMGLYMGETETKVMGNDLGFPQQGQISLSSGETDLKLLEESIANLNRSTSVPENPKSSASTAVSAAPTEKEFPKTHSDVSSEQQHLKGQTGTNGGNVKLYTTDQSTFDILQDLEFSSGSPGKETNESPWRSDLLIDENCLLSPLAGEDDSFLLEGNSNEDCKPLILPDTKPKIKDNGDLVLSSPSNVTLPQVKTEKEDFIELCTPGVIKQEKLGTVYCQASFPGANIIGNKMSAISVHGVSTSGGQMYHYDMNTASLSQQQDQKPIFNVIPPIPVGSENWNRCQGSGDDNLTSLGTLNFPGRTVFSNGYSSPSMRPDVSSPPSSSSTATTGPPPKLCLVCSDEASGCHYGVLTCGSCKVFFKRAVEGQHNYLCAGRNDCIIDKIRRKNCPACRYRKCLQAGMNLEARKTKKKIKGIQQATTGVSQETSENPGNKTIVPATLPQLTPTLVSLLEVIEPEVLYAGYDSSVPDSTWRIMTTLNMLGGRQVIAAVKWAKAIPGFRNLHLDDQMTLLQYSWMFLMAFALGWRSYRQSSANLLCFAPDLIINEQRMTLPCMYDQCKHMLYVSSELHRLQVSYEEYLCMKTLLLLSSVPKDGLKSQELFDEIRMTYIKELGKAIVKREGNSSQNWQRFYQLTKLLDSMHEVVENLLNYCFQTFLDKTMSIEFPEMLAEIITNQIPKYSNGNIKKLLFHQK

Glucocorticoid receptor [2] = target: T2, Glucocorticoid receptor; assay: Binding affinity for glucocorticoid receptor
Estrogen receptor = Estrogen receptor (Homo sapiens, UniProt Q92731+P03372); assay: Binding affinity for estrogen receptor; assay type: protein assay
Glucocorticoid receptor [3] = target: T2, Glucocorticoid receptor; assay: Transcriptional activation in CV-1 cells expressing glucocorticoid receptor; assay type: functional, cell-based
[4] = target: T3, Glucocorticoid receptor (Rattus norvegicus) (UniProt P06536); assay: Anti-asthmatic effect as eosinophil influx in rat lung model; assay type: functional
T3 sequence (whole entry): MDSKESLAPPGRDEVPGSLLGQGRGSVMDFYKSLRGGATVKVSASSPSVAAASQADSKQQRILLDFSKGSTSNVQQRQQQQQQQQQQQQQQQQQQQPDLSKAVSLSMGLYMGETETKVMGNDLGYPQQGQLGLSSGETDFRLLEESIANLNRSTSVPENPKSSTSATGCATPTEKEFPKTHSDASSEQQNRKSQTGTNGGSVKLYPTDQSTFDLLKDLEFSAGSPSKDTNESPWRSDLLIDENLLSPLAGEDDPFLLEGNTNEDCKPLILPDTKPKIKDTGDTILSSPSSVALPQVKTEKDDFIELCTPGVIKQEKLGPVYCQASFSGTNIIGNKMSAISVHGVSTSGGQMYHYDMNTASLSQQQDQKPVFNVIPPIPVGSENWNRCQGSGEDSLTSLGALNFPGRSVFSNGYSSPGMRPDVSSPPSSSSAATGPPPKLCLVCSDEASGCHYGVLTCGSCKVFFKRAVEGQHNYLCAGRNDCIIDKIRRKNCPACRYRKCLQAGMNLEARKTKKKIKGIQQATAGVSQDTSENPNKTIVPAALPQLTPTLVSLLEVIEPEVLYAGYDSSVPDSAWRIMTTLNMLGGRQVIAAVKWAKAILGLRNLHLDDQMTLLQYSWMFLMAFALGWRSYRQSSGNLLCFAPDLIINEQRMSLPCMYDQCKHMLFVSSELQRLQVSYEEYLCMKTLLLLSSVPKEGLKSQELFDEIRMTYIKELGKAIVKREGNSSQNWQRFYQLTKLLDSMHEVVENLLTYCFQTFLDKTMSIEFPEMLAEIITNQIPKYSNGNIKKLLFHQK

Ki (Androgen receptor): 3120 nM
IC50 (Glucocorticoid receptor [1]): 140 nM
Ki (Glucocorticoid receptor [2]): 4 nM
Ki (Estrogen receptor): > 1000 nM
IC50 (Glucocorticoid receptor [3]): 9 nM
ED50 [4]: 2.8 mg/kg
SMILES: COc1cccc2c1-c1ccc3c(c1C(c1cccc(OCSC)c1)O2)C(C)=CC(C)(C)N3 (stereo unspecified)
